The source of these data is patent publication US8563549B2, “Pyrimidine derivatives used as PI-3 kinase inhibitors” (Novartis AG, priority 2006, dated 2013).

In assay [1] the test system is Akt^Ser473 phosphorylation. The experiment in a line: In vivo target modulation (PK/PD) in A2780 xenograft tumors (Biological Method 3). On the set-up: species or system nu/nu mice. The source says:
A2780 ovarian cancer cells obtained from George Coukos (Fox Chase Cancer Center, University of Pennsylvania, Philadelphia, Pa.) were maintained in DMEM (Invitrogen, Inc.) supplemented with 10% heat-inactivated fetal bovine serum with 1% glutamine. Cells were propagated as recommended by the Dr. Coukos and colleagues. Female nu/nu mice (8-12 weeks old, 20-25 g, Charles River) were used for all in vivo pharmacology studies. The mice were housed and maintained in accordance with state and federal guidelines for the humane treatment and care of laboratory animals and received food and water ad libitum. Cancer cells were harvested from mid-log phase cultures using trypsin-EDTA (Invitrogen, Inc.). […] Tumor volumes were determined by using StudyDirector software.
For PK/PD dose-dependent studies, tumor-bearing mice were given a single oral dose of compound at different concentrations (10, 30, 60 and 100 mg/kg or vehicle) and tumors were resected at 10 hr or 24 hr after dosing. […] Supernatants were taken after centrifugation of tumor lysates at 300×g for 10 min at 4° C. and the protein concentration in each supernatant was determined by BCA (BioRad). […] The density of the positive band on the X-ray film was scanned and the target modulation for each compound was expressed as percentage inhibition by each compound compared to vehicle treatment. […]

In assay [2] the test system is A2780 tumor xenograft. The experiment in a line: Efficacy study in A2780 ovarian cancer xenograft model (Biological Method 3). The format is in vivo, nu/nu mice. The note with it: oral. The source says:
A2780 ovarian cancer cells obtained from George Coukos (Fox Chase Cancer Center, University of Pennsylvania, Philadelphia, Pa.) were maintained in DMEM (Invitrogen, Inc.) supplemented with 10% heat-inactivated fetal bovine serum with 1% glutamine. Cells were propagated as recommended by the Dr. Coukos and colleagues. Female nu/nu mice (8-12 weeks old, 20-25 g, Charles River) were used for all in vivo pharmacology studies. The mice were housed and maintained in accordance with state and federal guidelines for the humane treatment and care of laboratory animals and received food and water ad libitum. Cancer cells were harvested from mid-log phase cultures using trypsin-EDTA (Invitrogen, Inc.). Five million cells were subcutaneously injected into the right flank of each mouse. Compound treatment was initiated when tumor size reached to 300-400 mm^3 for PK/PD studies and 200-300 mm^3 for efficacy studies. All compound treatment was administrated orally. Tumor volumes were determined by using StudyDirector software.
For efficacy studies, A2780 cancer cells (5×10^6 in 100 μl of DMEM culture medium) were injected subcutaneously into the right flank of each nu/nu mouse. […] Tumor growth and animal body weight was measured twice weekly with daily clinical observation to monitor potential toxicities related to the treatment. […]

As for `Nc1cc(C(F)(F)F)c(-c2cc(N3CCOCC3)nc(N3CCOCC3)n2)cn1` [Compound 10], the “Duration of inhibition of Akt^Ser473 (>50% inhibition)” value in assay [1] is above 10 h. The Antitumor activity entry in assay [2] (b.i.d., 30 mg/kg (FIG. 5)) is “significant antitumor activity”. The Tumor growth inhibition result in assay [2] (daily, 100 mg/kg) was “tumor growth stasis”.

As for `Nc1ncc(-c2cc(OC3CCOCC3)nc(N3CCOCC3)n2)c(C(F)(F)F)n1` [Compound 66], in assay [1], the “Duration of inhibition of Akt^Ser473 (>50% inhibition)” value was above 10 h.
